# Results as given in patent publication US8012979B2, “Compounds and their uses 707” (AstraZeneca AB, priority 2007, dated 2011).
# Target: T1, human active recombinant p38α-6His tagged (Homo sapiens, UniProt Q16539)
# T1 construct: 6His
# Test: p38 Alpha Enzyme Assay (AlphaScreen, biotinylated-ATF2 substrate)
# Type: biochemical
# Conditions: pre-incubated 4 hours at 37° C., reaction initiated with ATP; 0.5 nM enzyme; read-out: p38 pIC50 (converted)
# T1 sequence (Q16539 whole entry): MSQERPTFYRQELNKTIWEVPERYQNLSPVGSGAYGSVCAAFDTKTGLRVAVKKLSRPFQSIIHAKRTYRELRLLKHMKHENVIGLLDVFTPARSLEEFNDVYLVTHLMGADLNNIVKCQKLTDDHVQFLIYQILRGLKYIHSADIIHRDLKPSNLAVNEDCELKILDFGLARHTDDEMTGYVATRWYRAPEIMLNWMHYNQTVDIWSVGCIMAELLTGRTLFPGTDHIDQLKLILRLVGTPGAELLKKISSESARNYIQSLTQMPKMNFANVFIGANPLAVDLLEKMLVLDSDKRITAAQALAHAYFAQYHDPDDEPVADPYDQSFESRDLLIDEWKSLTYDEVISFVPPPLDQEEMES
row,Structure (SMILES),IC50 [nM]
1,"Cc1c(F)cc(C(=O)NC2CC2)cc1-c1ccc2c(=O)n(CC3CC3)cc(CN3C[C@@H](C)N[C@@H](C)C3)c2c1 [Example 80, N-Cyclopropyl-3-(2-(cyclopropylmethyl)-4-(((3S,5R)-3,5-dimethylpiperazin-1-yl)methyl)-1-oxo-1,2-dihydroisoquinolin-6-yl)-5-fluoro-4-methylbenzamide]",0.316
2,"CNC1CCN(Cc2cn(CC3CC3)c(=O)c3ccc(-c4cc(C(=O)NC5CC5)cc(F)c4C)cc23)CC1 [Example 81, N-Cyclopropyl-3-(2-(cyclopropylmethyl)-4-((4-(methylamino)piperidin-1-yl)methyl)-1-oxo-1,2-dihydroisoquinolin-6-yl)-5-fluoro-4-methylbenzamide]",0.1
3,"Cc1c(F)cc(C(=O)NC2CC2)cc1-c1ccc2c(=O)n(CC3CC3)cc(CN3CCN[C@@H](C)C3)c2c1 [Example 82, (S)—N-Cyclopropyl-3-(2-(cyclopropylmethyl)-4-((3-methylpiperazin-1-yl)methyl)-1-oxo-1,2-dihydroisoquinolin-6-yl)-5-fluoro-4-methylbenzamide]",0.1
4,"Cc1c(F)cc(C(=O)NC2CC2)cc1-c1ccc2c(=O)n(CC3CC3)cc(CN3CCC(N)CC3)c2c1 [Example 83, 3-(4-((4-Aminopiperidin-1-yl)methyl)-2-(cyclopropylmethyl)-1-oxo-1,2-dihydroisoquinolin-6-yl)-N-cyclopropyl-5-fluoro-4-methylbenzamide]",0.0794
5,"Cc1c(F)cc(C(=O)NC2CC2)cc1-c1ccc2c(=O)n(CC3CC3)cc(CN3CCC(NC(C)C)CC3)c2c1 [Example 84, N-Cyclopropyl-3-(2-(cyclopropylmethyl)-4-((4-(isopropylamino)piperidin-1-yl)methyl)-1-oxo-1,2-dihydroisoquinolin-6-yl)-5-fluoro-4-methylbenzamide]",0.2

# The remaining lines, values ahead:
row,IC50 [nM],Structure (SMILES)
1,0.0398,"Cc1c(F)cc(C(=O)NC2CC2)cc1-c1ccc2c(=O)n(CC3CC3)cc(CN3CCN[C@@H](CO)C3)c2c1 [Example 85, (R)—N-Cyclopropyl-3-(2-(cyclopropylmethyl)-4-((3-(hydroxymethyl)piperazin-1-yl)methyl)-1-oxo-1,2-dihydroisoquinolin-6-yl)-5-fluoro-4-methylbenzamide]"
2,0.0794,"Cc1c(F)cc(C(=O)NC2CC2)cc1-c1ccc2c(=O)n(CC3CC3)cc(CN3CCNC[C@H]3C)c2c1 [Example 86, (R)—N-Cyclopropyl-3-(2-(cyclopropylmethyl)-4-((2-methylpiperazin-1-yl)methyl)-1-oxo-1,2-dihydroisoquinolin-6-yl)-5-fluoro-4-methylbenzamide]"
3,0.0631,"Cc1c(F)cc(C(=O)NC2CC2)cc1-c1ccc2c(=O)n(CC3CC3)cc(CN3CCN(C)[C@@H](CO)C3)c2c1 [Example 87, (R)—N-Cyclopropyl-3-(2-(cyclopropylmethyl)-4-((3-(hydroxymethyl)-4-methylpiperazin-1-yl)methyl)-1-oxo-1,2-dihydroisoquinolin-6-yl)-5-fluoro-4-methylbenzamide]"
4,0.0631,"Cc1c(F)cc(C(=O)NC2CC2)cc1-c1ccc2c(=O)n(CC3CC3)cc(CN3CCNCC3)c2c1 [Example 88, N-Cyclopropyl-3-(2-(cyclopropylmethyl)-1-oxo-4-(piperazin-1-ylmethyl)-1,2-dihydroisoquinolin-6-yl)-5-fluoro-4-methylbenzamide]"
5,0.794,"Cc1c(F)cc(C(=O)NC2CC2)cc1-c1ccc2c(=O)n(CC3CC3)cc(CNCC3CCNCC3)c2c1 [Example 89, N-Cyclopropyl-3-(2-(cyclopropylmethyl)-1-oxo-4-((piperidin-4-ylmethylamino)methyl)-1,2-dihydroisoquinolin-6-yl)-5-fluoro-4-methylbenzamide]"
6,0.158,"Cc1c(F)cc(C(=O)NC2CC2)cc1-c1ccc2c(=O)n(CC3CC3)cc(CN3CCN(CCO)CC3)c2c1 [Example 90, N-Cyclopropyl-3-(2-(cyclopropylmethyl)-4-((4-(2-hydroxyethyl)piperazin-1-yl)methyl)-1-oxo-1,2-dihydroisoquinolin-6-yl)-5-fluoro-4-methylbenzamide]"
